pIC50: −log10 of the molar value.
How the values were obtained:
[1] = Pharmacokinetic evaluation in SD rats; type: in vivo; conditions: oral administration 10.0 mg/kg
Method: Experimental Example 4: Pharmacokinetic Evaluation of the Compound of the Present Disclosure in Rats
Experimental purpose: To test the pharmacokinetics of the compound in SD rats in vivo
Experimental materials: SD rats (male, 200 to 300 g, 6 to 10 weeks old, Beijing Vital River)
The pharmacokinetic characteristics of the compound in rodents after intravenous injection and oral administration were tested according to the standard protocol. In the experiment, the candidate compound was formulated into clear solutions, and a single intravenous injection and oral administration were respectively given to two rats. The vehicle of intravenous injection and oral administration is 5:95 DMSO and 10% hydroxypropyl β-cyclodextrin aqueous solution. The whole blood samples within 24 hours were collected in commercial EDTA2K anticoagulant tubes. The tubes were centrifuged at 6000 g for 3 minutes. The supernatant was separated to obtain plasma samples. 20 times the volume of acetonitrile solution containing internal standard was added to precipitate protein. The mixture was centrifuged. The supernatant was take out. An equal volume of water was added. Then the mixture was centrifuged to take the supernatant as the sample for sampling. Plasma concentration was quantitatively analyzed by LC-MS/MS analysis method, and pharmacokinetic parameters were calculated, such as apparent volume of distribution, clearance rate, half-life, area under the drug-time curve.

[2] = Mouse tissue (bone marrow) distribution; type: in vivo; conditions: CD-1 mice
Method: Experimental Example 5: Evaluation of Mouse Tissue (Bone Marrow) Distribution of the Compound of the Present Disclosure
Experimental purpose: To test the distribution of the compound of the present disclosure in the bone marrow and plasma of CD-1 mice
Experimental materials: CD-1 mice (male, 20 to 40 g, 4 to 6 weeks old, Beijing Vital River)
The content of the compound in the bone marrow and plasma of mice after oral administration was tested according to the standard protocol. In the experiment, the candidate compound was formulated into a clear solution. The vehicle was 5:95 DMSO and 10% hydroxypropyl β-cyclodextrin aqueous solution. A dose of 5 mg/kg was given to mice as a single oral administration. The whole blood samples and bone marrow samples were collected at 0.25, 0.5, 1, 2, 4, 6, and 24 hours, respectively. The whole blood samples were collected in commercial EDTA2K anticoagulant tubes. The tubes were centrifuged at 6000 g for 3 minutes. The supernatant was separated to obtain plasma samples. The acetonitrile solution containing internal standard was added to precipitate protein. The mixture was centrifuged. The supernatant was take out. An equal volume of water was added. After mixing well, plasma concentration was quantitatively analyzed by LC-MS/MS analysis method, and the area under the drug-time curve was calculated. The femur and tibia on both sides of the mice were taken, and the muscle was removed. One end was cut off, placed in a centrifuge tube with the open end downwards. The tubes were centrifuged at 8000 rpm for 1 minute. The precipitate was bone marrow. The bone marrow was mixed with 50% methanol-water, grinded into a homogenate. The homogenate was added with an acetonitrile solution containing an internal standard to precipitate protein. The mixture was centrifuged to take the supernatant, added with an equal volume of water. After mixing well, the drug concentration in bone marrow was quantitatively analyzed by LC-MS/MS analysis method, and the area under the drug-time curve was calculated.
The calculation formula of bone marrow/plasma distribution coefficient is: Bone marrow/Plasma Ratio=bone marrow AUC0-last/plasma AUC0-last.

[3] = molecular target: Recombinant human cathepsin C/DPP1; assay: Inhibition effect test of DPP1 enzyme activity; type: biochemical; conditions: recombinant human cathepsin C/DPP1, Gly-Arg-AMC substrate 12.5 μM, 25° C. 60 minutes; read-out: IC50, inhibitory activity on DPP1 enzyme
Method: Experimental Example 1: Inhibition Effect Test of DPP1 Enzyme Activity
Recombinant human cathepsin C/DPP1 was purchased from R&D Systems;
Recombinant human cathepsin L (rhCathepsin L) was purchased from R&D Systems;
Gly-Arg-AMC (hydrochloride) was purchased from CAYMAN CHEMICAL COMPANY.
1× activation buffer: 5 mM DTT 0.01% (V/V) Triton X-100 (preparation for current use);
1× assay buffer: 50 mM NaCl 5 mM DTT 0.01% (V/V) Triton X-100 (preparation for current use);
1× activation buffer was used to dilute recombinant human cathepsin C/DPP1 enzyme and recombinant human cathepsin L (rhCathepsin L) enzyme to concentrations of 2 ng/μL and 0.4 ng/μL, respectively; equal volume of two working solutions of enzyme was taken, mixed well and incubated at 25° C. for 60 minutes;
the compounds to be tested were 5-fold diluted with a multi-channel pipette to the 8th concentration, i.e., diluted from 1 mM to 12.8 nM. Then 1× experimental buffer was used to dilute each compound to be tested by gradient into a 4% DMSO working solution. The working solution was added to corresponding wells for 5 μL/well, and duplicate experiment was set. The mixture was centrifuged at 1000 rpm for 1 minute;
5 μL/well of the enzyme mixture after incubation was taken and added to the white microwell plate. At this time, the amount of DPP1 enzyme in each well was 5 ng; 1× experimental buffer in 5 μL/well was added to the blank control well;
Gly-Arg-AMC (hydrochloride) was diluted to 25 μM with 1× assay buffer. The diluted mixture in 10 μL/well was added to a white microwell plate. The substrate concentration was 12.5 μM at this time, and the microplate was centrifuged in a centrifuge at 1000 rpm for 1 minute. […] After centrifugation, the microplate was covered with membrane and incubated at 25° C. for 60 minutes;
after incubation, fluorescence detection was performed using a multi-label analyzer with an excitation wavelength of 360 nm and an emission wavelength of 460 nm.
Using the equation (Sample−Min)/(Max−Min)×100% to convert the raw data into enzyme activity, the IC50 value might be obtained by curve fitting with four parameters (obtained by “log (inhibitor) vs. response—Variable slope” mode in GraphPad Prism).
Max: Contains recombinant human cathepsin C/DPP1, recombinant human cathepsin L (rhCathepsin L), and Gly-Arg-AMC (hydrochloride)
Min: No recombinant human cathepsin C/DPP1 and recombinant human cathepsin L (rhCathepsin L)

[4] = plasma, intravenous injection 2.0 mg/kg
[5] = bone marrow, 5 mg/kg single oral administration

With Cn1ncc2ccc(-c3ccc(C[C@@H](C#N)NC(=O)[C@@H]4CNCCCO4)c(F)c3)cc21 [Compound 8] the “Bioavailability F” value ([1]; intravenous injection 2.0 mg/kg) was 39.1%, the “Clearance rate CL” value [1, 4] was 13.1 mL/min/kg and the “Volume of distribution at steady state Vdss” value [1, 4] was 1.9 L/kg. For the same molecule, the Cmax ([1]; plasma, intravenous injection 2.0 mg/kg, read-out: Peak concentration Cmax) was 2240 nM, the “Area under drug-time curve AUC0-∞ PO” value ([1]; plasma) was 11.864 µM·h and the “Half life T1/2 (PO)” value ([1]; plasma) was 3.2 h. The “Bone marrow/plasma distribution coefficient” value ([2]; 5 mg/kg oral, bone marrow AUC0-last/plasma AUC0-last) was 4.5, the “Bone marrow Area under drug-time curve AUC0-last PO” value [2, 5] was 82362 nmol·h/kg and the “Bone marrow Peak concentration Cmax” value [2, 5] was 6113 nmol/kg. The “Plasma Area under drug-time curve AUC0-last PO” value ([2]; plasma, 5 mg/kg single oral administration) was 18.362 µM·h, the Cmax ([2]; plasma, 5 mg/kg single oral administration, read-out: Plasma Peak concentration Cmax) was 2300 nM and the pIC50 [3] was 8.45.
